Measurements as given in patent US12617770B2, “IRAK inhibitor and preparation method therefor and use thereof” (WUHAN CREATERNA SCIENCE AND TECHNOLOGY CO., LTD., priority 2019, dated 2026).
pIC50: −log10 of the molar value.

Tests used:
[1] = molecular target: T1, hERG potassium ion channel (Homo sapiens, UniProt Q12809); test: hERG whole-cell patch clamp in HEK-293 cell line stably expressing hERG; type: cell-based; conditions: HEK-293 cells stably expressing hERG, pH 7.4, HEK-293 cells expressing hERG, mean ± spread
T1 construct: expressed in transfected cells; host or cells: HEK-293
T1 sequence (Q12809 whole entry): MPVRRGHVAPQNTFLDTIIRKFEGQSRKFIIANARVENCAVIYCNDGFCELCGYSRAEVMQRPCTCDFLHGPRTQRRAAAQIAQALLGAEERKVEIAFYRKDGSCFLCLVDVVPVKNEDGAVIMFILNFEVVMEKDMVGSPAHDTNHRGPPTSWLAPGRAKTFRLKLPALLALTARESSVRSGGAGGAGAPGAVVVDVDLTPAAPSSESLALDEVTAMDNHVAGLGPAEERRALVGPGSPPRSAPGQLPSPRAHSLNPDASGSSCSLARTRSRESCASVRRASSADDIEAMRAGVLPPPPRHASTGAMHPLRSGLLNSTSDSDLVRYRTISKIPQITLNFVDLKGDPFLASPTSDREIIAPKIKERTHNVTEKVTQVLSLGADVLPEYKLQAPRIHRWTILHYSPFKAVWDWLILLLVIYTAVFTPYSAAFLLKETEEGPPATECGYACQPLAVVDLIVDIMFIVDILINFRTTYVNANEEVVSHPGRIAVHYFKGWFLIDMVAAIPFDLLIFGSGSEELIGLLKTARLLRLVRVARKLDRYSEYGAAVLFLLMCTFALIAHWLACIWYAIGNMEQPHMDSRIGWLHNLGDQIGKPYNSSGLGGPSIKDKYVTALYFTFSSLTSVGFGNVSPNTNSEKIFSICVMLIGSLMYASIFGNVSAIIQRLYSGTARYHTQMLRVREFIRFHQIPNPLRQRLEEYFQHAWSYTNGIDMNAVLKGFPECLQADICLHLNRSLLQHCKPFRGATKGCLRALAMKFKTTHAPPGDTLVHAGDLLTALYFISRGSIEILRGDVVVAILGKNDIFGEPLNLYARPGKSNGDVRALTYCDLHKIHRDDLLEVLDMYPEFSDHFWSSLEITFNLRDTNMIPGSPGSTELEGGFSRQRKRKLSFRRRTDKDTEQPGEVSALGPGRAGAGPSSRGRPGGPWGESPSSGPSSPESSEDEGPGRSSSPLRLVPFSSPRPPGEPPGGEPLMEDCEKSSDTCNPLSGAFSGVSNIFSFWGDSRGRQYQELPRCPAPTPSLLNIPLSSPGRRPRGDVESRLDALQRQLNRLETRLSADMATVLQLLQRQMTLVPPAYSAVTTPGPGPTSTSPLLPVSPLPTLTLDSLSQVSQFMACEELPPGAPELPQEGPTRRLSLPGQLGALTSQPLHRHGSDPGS
Description: The working solutions of the test compounds were ultrasonically treated for 20 min.
Patch clamping: Under an inverted microscope, recording electrodes were controlled by micromanipulator to contact with the cell. A negative voltage was applied to create a G-omega shaped connection. After forming the G-omega shaped connection, a rapid capacitance compensation was given. Under the continuous negative voltage, the cell membrane was ruptured to form a whole-cell recording configuration. In the whole-cell recording configuration, slow capacitance compensation was given, and the values of membrane capacitance and series resistance were recorded. […]
The cover glasses planted with cells were placed in the recording chamber of an inverted microscope. […] The current detected in a cell in the negative control was used as the background for the cell. […]
[formula] Basic statistics were calculated for each concentration, including mean, standard deviation (SD), standard error (SE), and replicates (n). The dose-dependent curve was fitted with the following equation and the half maximal inhibitory concentration (IC50) of the test compounds was calculated: […]

[2] = Plasma protein binding (PPB), equilibrium dialysis, human plasma; type: in vitro ADME; conditions: 5 h at 37° C., read-out: Plasma protein binding (Bound %) Human (converted)
Description: (§1) The experiment is intended to determine plasma protein binding (PPB) data of the test compounds disclosed herein.
(§2) In the PPB experiment, the final administration matrix contained the test compound or a reference compound with a concentration of 1 μM and DMSO with a content of 0.2%.
(§3) Collecting samples in initial time: 25 μL of the matrix containing the compound was added into a blank 96-well collecting plate, and the plate was stored at −20° C.
(§4) An equilibrated dialysis device was prepared. 100 μL of buffer was added to the receiving side of the equilibrium dialysis plate. Then 100 μL of the administration matrix containing the compound or the reference compound was added into an administration side of the equilibrium dialysis plate. The prepared equilibrium dialysis plate was placed in a 37° C. shaker to be shaken for 5 h at 60 rpm.
(§5) Sample was prepared at the end of cultivation (5 h): Preparing sample in the receiving side: 25 μL of sample from a receiving side was taken out and placed in a 96-well sample collecting plate, and 25 μL of a corresponding matrix (blank plasma) was added for mixing: 200 μL of ACN containing an internal standard was added, shaken for 10 minutes at 600 rpm, and centrifuged at 5594 g for 15 min.
(§6) Preparing sample in the administration side: 25 μL of the sample containing test compound and reference compound from the administration side was taken out and 25 μL of a blank buffer was added for mixing; 200 μL of ACN containing an internal standard was added, shaken for 10 minutes at 600 rpm, and centrifuged at 5594 g for 15 min.
(§7) Preparing sample in initial time: the sample containing test compound and reference compound was re-melted at 37° C. in initial time and then mixed with the corresponding matrix (blank buffer) in the same volume (25 μL); 200 μL of ACN containing an internal standard was added, shaken for 10 minutes at 600 rpm, and centrifuged at 5594 g for 15 min.
(§8) After all the samples were centrifuged, 50 μL of a supernatant was taken and added into 50 μL of ultrapure water for mixing, and the samples were sent to liquid chromatography-mass spectrometry.

[3] = Plasma protein binding (PPB), equilibrium dialysis, rat plasma; type: in vitro ADME; conditions: 5 h at 37° C., read-out: Plasma protein binding (Bound %) Rat (converted)
Description: as §1, §2, §3, §4, §5, §6, §7, §8

CYP2C9 = molecular target: T2, CYP2C9 (Homo sapiens, UniProt P11712); test: CYP450 inhibition in human liver microsomes, CYP2C9; type: in vitro ADME; conditions: pooled (mixed) human liver microsomes, probe diclofenac
T2 construct: co-incubated at 7 concentrations with human liver microsomes and five probe substrates; tissue Corning (USA); host or cells: mixed (pooled) human liver microsomes
T2 sequence (P11712 whole entry): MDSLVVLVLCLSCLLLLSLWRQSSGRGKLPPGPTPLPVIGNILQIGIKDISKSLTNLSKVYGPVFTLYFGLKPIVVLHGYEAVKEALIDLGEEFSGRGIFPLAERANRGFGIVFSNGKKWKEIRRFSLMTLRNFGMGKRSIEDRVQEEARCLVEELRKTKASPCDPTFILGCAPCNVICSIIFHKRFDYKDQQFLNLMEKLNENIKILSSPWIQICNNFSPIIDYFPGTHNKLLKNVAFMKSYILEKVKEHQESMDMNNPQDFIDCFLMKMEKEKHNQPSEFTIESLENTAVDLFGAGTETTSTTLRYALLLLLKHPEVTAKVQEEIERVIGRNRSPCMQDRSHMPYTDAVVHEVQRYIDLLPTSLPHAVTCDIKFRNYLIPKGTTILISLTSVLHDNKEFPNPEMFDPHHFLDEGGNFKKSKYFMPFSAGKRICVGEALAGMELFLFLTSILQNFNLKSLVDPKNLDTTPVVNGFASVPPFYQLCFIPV
Description: (§9) This study was intended to investigate the inhibitory effect of the test compounds on 5 major enzymes in human P450 superfamily, CYP1A2, 2C9, 2C19, 2D6 and 3A4-M. The mixed human liver microsomes used in this assay were purchased from Corning (USA). The test compound (compound 14) was co-incubated at 7 concentrations with human liver microsomes and five probe substrates (phenacetin for CYP1a2, diclofenac for CYP2C9, mephenytoin for CYP2C19, dextromethorphan for CYP2D6, midazolam for CYP3A4-M, mixed). The reaction was initiated by adding coenzyme NADPH, and terminated by adding acetonitrile containing internal standard. After the proteins were precipitated, the supernatant was centrifuged. The characteristic metabolites in the supernatant (acetaminophen for CYP1A2, 4-hydroxydiclofenac for CYP2C9, 4-hydroxymephenytoin for CYP2C19, dextrorphan for CYP2D6, 1-hydroxymidazolam for CYP3A4-M) were analyzed by LC-MS/MS. The influence of the test compounds on production of the characteristic metabolites was finally analyzed on the basis of the data obtained. A selective inhibitor (ketoconazole for CYP3A4-M) may be used as positive control. All samples were tested in duplicate.

CYP2C19 = molecular target: T3, CYP2C19 (Homo sapiens, UniProt P33261); test: CYP450 inhibition in human liver microsomes, CYP2C19; type: in vitro ADME; conditions: pooled (mixed) human liver microsomes, probe mephenytoin
T3 construct: co-incubated at 7 concentrations with human liver microsomes and five probe substrates; tissue Corning (USA); host or cells: mixed (pooled) human liver microsomes
T3 sequence (P33261 whole entry): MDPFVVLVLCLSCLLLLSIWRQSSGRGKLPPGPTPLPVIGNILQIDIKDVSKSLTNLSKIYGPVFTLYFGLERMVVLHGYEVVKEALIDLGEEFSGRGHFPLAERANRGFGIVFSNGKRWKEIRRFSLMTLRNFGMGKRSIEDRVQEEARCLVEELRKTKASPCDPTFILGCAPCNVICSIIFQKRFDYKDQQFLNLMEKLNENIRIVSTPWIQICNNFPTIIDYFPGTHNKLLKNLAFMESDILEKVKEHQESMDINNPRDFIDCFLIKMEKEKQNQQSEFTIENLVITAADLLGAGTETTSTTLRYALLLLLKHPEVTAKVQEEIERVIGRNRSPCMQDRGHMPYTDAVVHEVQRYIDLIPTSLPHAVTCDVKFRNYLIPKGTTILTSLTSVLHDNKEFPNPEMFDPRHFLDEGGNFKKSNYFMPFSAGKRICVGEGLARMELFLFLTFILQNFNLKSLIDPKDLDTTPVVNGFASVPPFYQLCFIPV
Description: as §9

CYP2D6 = molecular target: T4, CYP2D6 (Homo sapiens, UniProt P10635); test: CYP450 inhibition in human liver microsomes, CYP2D6; type: in vitro ADME; conditions: pooled (mixed) human liver microsomes, probe dextromethorphan; human liver microsomes, dextromethorphan; read-out: CYP2D6 IC50
T4 construct: co-incubated at 7 concentrations with human liver microsomes and five probe substrates; tissue Corning (USA); host or cells: mixed (pooled) human liver microsomes
T4 sequence (P10635 whole entry): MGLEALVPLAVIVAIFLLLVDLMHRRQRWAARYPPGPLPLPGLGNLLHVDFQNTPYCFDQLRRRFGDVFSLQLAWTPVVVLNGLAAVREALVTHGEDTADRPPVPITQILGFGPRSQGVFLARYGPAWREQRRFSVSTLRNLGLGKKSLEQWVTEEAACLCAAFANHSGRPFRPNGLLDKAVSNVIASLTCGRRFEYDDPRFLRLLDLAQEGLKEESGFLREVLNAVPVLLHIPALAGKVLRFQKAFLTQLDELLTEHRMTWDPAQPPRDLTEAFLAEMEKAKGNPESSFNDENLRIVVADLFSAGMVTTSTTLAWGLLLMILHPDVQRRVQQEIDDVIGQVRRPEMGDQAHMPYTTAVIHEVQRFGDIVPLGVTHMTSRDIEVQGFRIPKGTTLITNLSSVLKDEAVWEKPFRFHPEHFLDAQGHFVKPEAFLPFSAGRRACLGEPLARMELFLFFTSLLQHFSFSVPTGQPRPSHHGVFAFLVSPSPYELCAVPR
Description: as §9

fraction unbound at 5 h, 1 μM [2]	fraction unbound at 5 h, 1 μM [3]	pIC50 (CYP2C9)	pIC50 (CYP2C19)	pIC50 (CYP2D6)	Compound	inhibition at 5 min, 30 µM [1] [%]
0.19	0.153	< 4.52	< 4.52	< 4.52	COc1cc2nn([C@H]3CC[C@](C)(O)CC3)cc2cc1NC(=O)c1cccc(C)[n+]1[O-] [Compound 001, 2-((2-((1r,4r)-4-hydroxy-4-methylcyclohexyl)-6-methoxy-2H-indazol-5-yl)carbamoyl)-6-methylpyridine 1-oxide]	5.09
0.183	0.194	< 4.52	< 4.52	< 4.52	COc1cc2nn(CCC(C)(C)O)cc2cc1NC(=O)c1cccc(C)[n+]1[O-] [Compound 163, 2-((2-(3-hydroxy-3-methylbutyl)-6-methoxy-2H-indazol-5-yl)carbamoyl)-6-methylpyridine 1-oxide]	8.73
